Laboratory results published in patent US8268848B2, “Cyclopropane compound” (Eisai R&D Management Co., Ltd., priority 2010, dated 2012).
Like-named read-outs stand apart in the source and are kept apart here.

Tests used:
[1] = target: T1, OX2 (Homo sapiens, UniProt O43614); test: Measurement of orexin receptor-binding ability ([125I]-OX-A, cell membranes, OX2); set-up: expressed in transfected cells; host or cells: CHO cells (membrane preparation); conditions: membranes of recombinant CHO cells expressing OX2, 0.2 nM [125I]-OX-A
T1 sequence (O43614 1-444): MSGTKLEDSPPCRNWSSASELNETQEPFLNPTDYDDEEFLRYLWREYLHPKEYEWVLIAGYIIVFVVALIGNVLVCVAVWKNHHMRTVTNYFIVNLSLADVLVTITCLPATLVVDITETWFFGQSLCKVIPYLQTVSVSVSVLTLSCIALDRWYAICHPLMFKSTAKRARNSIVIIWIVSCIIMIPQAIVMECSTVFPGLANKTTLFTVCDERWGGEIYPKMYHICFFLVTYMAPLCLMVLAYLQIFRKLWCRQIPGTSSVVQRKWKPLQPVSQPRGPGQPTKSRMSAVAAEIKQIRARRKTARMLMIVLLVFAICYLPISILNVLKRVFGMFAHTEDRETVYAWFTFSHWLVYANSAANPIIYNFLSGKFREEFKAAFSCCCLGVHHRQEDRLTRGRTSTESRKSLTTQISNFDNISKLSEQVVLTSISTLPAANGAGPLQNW
Protocol: (§1) 1. Measurement of Orexin Receptor-Binding Ability
(§2) The assay was carried out using a 96-well Wheat Germ Agglutinin Flash Plate (PerkinElmer). The volume in a single assay well was 100 ul, and the composition of the reaction solution was as follows:
(§3) 25 mM HEPES (pH 7.5), 1 mM CaCl2, 4.5 mM MgCl2, 0.5% BSA (bovine serum albumin), 0.1% sodium azide, 0.05% Tween-20, and 0.2% DMSO.
(§4) Cell membranes were prepared from recombinant CHO cells that expressed OX2 or OX1. The cell membranes were used in an amount of 5 μg protein/assay. […] Finally, the radioactivity of each well was measured using a scintillation counter (TopCount, PerkinElmer).

[2] = target: T2, OX1 (Homo sapiens, UniProt O43613); test: Measurement of orexin receptor-binding ability ([125I]-OX-A, cell membranes, OX1); set-up: expressed in transfected cells; host or cells: CHO cells (membrane preparation)
T2 sequence (O43613 1-425): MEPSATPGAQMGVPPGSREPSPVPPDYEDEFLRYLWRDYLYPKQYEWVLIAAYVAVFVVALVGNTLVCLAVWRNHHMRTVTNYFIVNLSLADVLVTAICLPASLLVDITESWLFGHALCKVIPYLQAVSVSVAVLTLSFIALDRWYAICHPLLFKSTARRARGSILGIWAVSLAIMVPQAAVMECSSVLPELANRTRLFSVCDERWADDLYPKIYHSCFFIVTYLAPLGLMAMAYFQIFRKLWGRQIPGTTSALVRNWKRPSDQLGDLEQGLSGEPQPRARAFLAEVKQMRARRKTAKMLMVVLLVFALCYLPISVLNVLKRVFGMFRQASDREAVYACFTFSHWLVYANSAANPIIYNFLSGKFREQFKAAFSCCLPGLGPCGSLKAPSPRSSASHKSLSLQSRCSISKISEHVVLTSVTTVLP
Protocol: as §1, §2, §3, §4

[3] = membranes of recombinant CHO cells expressing OX1, 0.2 nM [125I]-OX-A, read-out: OX1 (IC50)

Row | SMILES | IC50 ([1]; read-out: OX2 (IC50)) | IC50 [2, 3] | IC50 ([1]; OX2 (IC50) nM) | IC50 [2]
1 | Cc1ncc(OC[C@@]2(c3ccccc3)C[C@H]2C(=O)Nc2ncc(C)s2)c(C)n1 [Example 2] | 19 nM | 296 nM | – | –
2 | Cc1ncc(OC[C@@]2(c3ccccc3)C[C@H]2C(=O)Nc2nc(C)c(C)s2)c(C)n1 [Example 4] | 38 nM | 55 nM | – | –
3 | Cc1ncc(OC[C@@]2(c3ccccc3)C[C@H]2C(=O)Nc2ccc(C(F)(F)F)cn2)c(C)n1 [Example 5] | 38 nM | 145 nM | – | –
4 | Cc1ncc(OC[C@@]2(c3ccccc3)C[C@H]2C(=O)Nc2cc(C(F)(F)F)ccn2)c(C)n1 [Example 10] | 31 nM | 228 nM | – | –
5 | COc1cccc(NC(=O)[C@@H]2C[C@@]2(COc2cnc(C)nc2C)c2ccccc2)n1 [Example 11] | 53 nM | 279 nM | – | –
6 | Cc1ncc(OC[C@@]2(c3ccccc3)C[C@H]2C(=O)Nc2cccc(Cl)n2)c(C)n1 [Example 12] | 53 nM | 247 nM | – | –
7 | Cc1ncc(OC[C@@]2(c3ccccc3)C[C@H]2C(=O)Nc2ccc3ccncc3c2)c(C)n1 [Example 13] | 71 nM | 1240 nM | – | –
8 | COCc1ccnc(NC(=O)[C@@H]2C[C@@]2(COc2cnc(C)nc2C)c2ccccc2)c1 [Example 14] | 16 nM | 302 nM | – | –
9 | Cc1ncc(OC[C@@]2(c3ccccc3)C[C@H]2C(=O)Nc2cc(C(F)F)ccn2)c(C)n1 [Example 15] | – | – | 41 nM | 213 nM
10 | Cc1ncc(OC[C@@]2(c3ccccc3)C[C@H]2C(=O)Nc2cccc(CO)c2)c(C)n1 [Example 17] | 38 nM | 294 nM | – | –
11 | Cc1ncc(OC[C@@]2(c3ccccc3)C[C@H]2C(=O)Nc2ccnc(F)c2)c(C)n1 [Example 18] | 33 nM | 344 nM | – | –
12 | Cc1ncc(OC[C@@]2(c3ccccc3)C[C@H]2C(=O)Nc2cccc(N(C)C)c2)c(C)n1 [Example 19, (1R,2S)-N-[3-(dimethylamino)phenyl]-2-{[(2,4-dimethylpyrimidin-5-yl)oxy]methyl}-2-phenylcyclopropanecarboxamide] | 10 nM | 93 nM | – | –
13 | Cc1ncc(OC[C@@]2(c3ccccc3)C[C@H]2C(=O)Nc2ccc3c(c2)N(C)C(=O)CO3)c(C)n1 [Example 22] | 17 nM | 273 nM | – | –
14 | Cc1ncc(OC[C@@]2(c3ccccc3)C[C@H]2C(=O)Nc2ccc3c(c2)NC(=O)CO3)c(C)n1 [Example 23] | 67 nM | 1700 nM | – | –
15 | Cc1ncc(OC[C@@]2(c3ccccc3)C[C@H]2C(=O)Nc2cccc(Cl)c2)c(C)n1 [Example 24, (1R,2S)-N-(3-chlorophenyl)-2-{[(2,4-dimethylpyrimidin-5-yl)oxy]methyl}-2-phenylcyclopropanecarboxamide] | 7 nM | 28 nM | – | –
16 | Cc1ncc(OC[C@@]2(c3ccccc3)C[C@H]2C(=O)Nc2ccc(Cl)cc2)c(C)n1 [Example 25] | 59 nM | 927 nM | – | –
17 | Cc1ncc(OC[C@@]2(c3ccccc3)C[C@H]2C(=O)Nc2ccc(Cl)c(C#N)c2)c(C)n1 [Example 27] | 15 nM | 169 nM | – | –
18 | Cc1cc(NC(=O)[C@@H]2C[C@@]2(COc2cnc(C)nc2C)c2ccccc2)ccn1 [Example 28] | 101 nM | 1700 nM | – | –
19 | Cc1ncc(OC[C@@]2(c3ccccc3)C[C@H]2C(=O)Nc2cccc(S(C)(=O)=O)c2)c(C)n1 [Example 29] | 55 nM | 459 nM | – | –
20 | Cc1ncc(OC[C@@]2(c3ccccc3)C[C@H]2C(=O)Nc2ccc(F)c(F)c2)c(C)n1 [Example 30] | 12 nM | 78 nM | – | –
21 | Cc1ncc(OC[C@@]2(c3ccccc3)C[C@H]2C(=O)Nc2cc(F)cc(F)c2)c(C)n1 [Example 31] | 26 nM | 222 nM | – | –
22 | Cc1ncc(OC[C@@]2(c3ccccc3)C[C@H]2C(=O)Nc2ccc(F)c(Cl)c2)c(C)n1 [Example 32, (1R,2S)-N-(3-chloro-4-fluorophenyl)-2-{[(2,4-dimethylpyrimidin-5-yl)oxy]methyl}-2-phenylcyclopropanecarboxamide] | 3.5 nM | 15 nM | – | –

Row | SMILES | IC50 ([1]; read-out: OX2 (IC50)) | IC50 [2, 3] | IC50 ([1]; OX2 (IC50) nM) | IC50 [2]
23 | Cc1ncc(OC[C@@]2(c3ccccc3)C[C@H]2C(=O)Nc2ccnc(Cl)c2)c(C)n1 [Example 33] | 15 nM | 209 nM | – | –
24 | Cc1ncc(OC[C@@]2(c3ccccc3)C[C@H]2C(=O)Nc2cc(F)cc(C#N)c2)c(C)n1 [Example 34] | – | – | 18 nM | 430 nM
25 | Cc1ncc(OC[C@@]2(c3ccccc3)C[C@H]2C(=O)Nc2cc(Cl)cc(C#N)c2)c(C)n1 [Example 35] | 43 nM | 558 nM | – | –
26 | COc1cccc(NC(=O)[C@@H]2C[C@@]2(COc2cnc(C)nc2C)c2ccccc2)c1 [Example 36, (1R,2S)-2-{[(2,4-dimethylpyrimidin-5-yl)oxy]methyl}-N-(3-methoxyphenyl)-2-phenylcyclopropanecarboxamide] | 3 nM | 9 nM | – | –
27 | CC(=O)c1cccc(NC(=O)[C@@H]2C[C@@]2(COc2cnc(C)nc2C)c2ccccc2)c1 [Example 37] | – | – | 8 nM | 41 nM
28 | Cc1ncc(OCC2(c3ccccc3C)CC2C(=O)Nc2ccc(C#N)cn2)c(C)n1 (stereo not shown) [Example 178] | – | – | – | 769 nM
29 | CCc1nc(C)ncc1OC[C@@]1(c2ccc(F)cc2)C[C@H]1C(=O)Nc1cccc(F)c1 [Example 249] | 17 nM | – | – | –
30 | CCc1nc(C)ncc1OC[C@@]1(c2ccc(F)cc2)C[C@H]1C(=O)Nc1ccc(F)cc1 [Example 250] | 14 nM | – | – | –
31 | COc1cc(F)cc(C2(COc3cnc(C)nc3C)CC2C(=O)Nc2ccccn2)c1 (stereo not shown) [Example 251] | 30 nM | – | – | –
32 | COc1cc(F)cc(C2(COc3cnc(C)nc3C)CC2C(=O)Nc2ccc(F)cc2)c1 (stereo not shown) [Example 252] | 18 nM | – | – | –
33 | COc1cc(F)cc(C2(COc3cnc(C)nc3C)CC2C(=O)Nc2ccc(C#N)cn2)c1 (stereo not shown) [Example 253] | 41 nM | – | – | –
34 | COc1cc(F)cc([C@]2(COc3cnc(C)nc3C)C[C@H]2C(=O)Nc2ccc(Cl)cn2)c1 [Example 255] | 27 nM | – | – | –
35 | COc1cc([C@]2(COc3cnc(C)nc3C)C[C@H]2C(=O)Nc2ccc(Cl)cn2)ccc1F [Example 257] | 84 nM | – | – | –
36 | COc1cc([C@]2(COc3cnc(C)nc3C)C[C@H]2C(=O)Nc2cc(C)c(F)cn2)ccc1F [Example 258] | > 60 nM | – | – | –
37 | COc1cc([C@]2(COc3cnc(C)nc3C)C[C@H]2C(=O)Nc2ccccn2)ccc1F [Example 259] | > 60 nM | – | – | –
38 | Cc1ncc(OC[C@@]2(c3ccccc3)C[C@H]2c2nc3cnccc3[nH]2)c(C)n1 [Example 304] | 90 nM | – | – | –
39 | Cc1ncc(OC[C@@]2(c3cc(F)cc(F)c3)C[C@H]2c2nc3ncc(Cl)cc3[nH]2)c(C)n1 [Example 307] | 33 nM | – | – | –
40 | Cc1ncc(OC[C@@]2(c3cc(F)cc(F)c3)C[C@H]2c2nc3ncccc3[nH]2)c(C)n1 [Example 308] | 31 nM | – | – | –
41 | CCc1nc(C)ncc1OC[C@@]1(c2cccc(F)c2)C[C@H]1c1nc2cnccc2[nH]1 [Example 309] | 10 nM | – | – | –
42 | COc1cc([C@]2(COc3cnc(C)nc3C)C[C@H]2C(=O)Nc2ccc(F)cn2)ccc1F [Example 314] | – | – | 173 nM | –
43 | COc1cc([C@]2(COc3cnc(C)nc3C)C[C@H]2C(=O)Nc2ccc(F)cc2)ccc1F [Example 315] | 208 nM | – | – | –
